The supplement of paper PMC10307832

Tests used:
Experiment in all cases: relative viability (nuclei count vs DMSO), 5 days (fraction); higher = more cells survive
Vemurafenib + Bortezomib = compound: CCCS(=O)(=O)Nc1ccc(F)c(C(=O)c2c[nH]c3ncc(-c4ccc(Cl)cc4)cc23)c1F [Vemurafenib] + CC(C)C[C@H](NC(=O)[C@H](Cc1ccccc1)NC(=O)c1cnccn1)B(O)O [Bortezomib] (partner 0.002 µM)
How it was run: (§1)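 A single step with final 0.05% Triton X-100, 1% formaldehyde and 1 ug/ml Hoechst fixed the cells and stained nuclei 5 days after treatment. Lung cancer cell lines in 1536-well plates had been treated by pin tool the day after seeding with one drug alone or a fixed anchor-drug dose plus five library-drug doses (not always all listed) in √10 steps, and nuclei were counted on 4× images. Relative viability is the ratio of nuclei in treated wells to nuclei in vehicle wells, taken as the median of duplicate plates.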

OSI-027 + Palbociclib = compound: COc1cccc2cc(-c3nc([C@H]4CC[C@H](C(=O)O)CC4)n4ncnc(N)c34)[nH]c12 [OSI-027] + CC(=O)c1c(C)c2cnc(Nc3ccc(N4CCNCC4)cn3)nc2n(C2CCCC2)c1=O [Palbociclib] (partner 0.5 µM)
How it was run: as §1

Alpelisib + Pictilisib = compound: Cc1nc(NC(=O)N2CCC[C@H]2C(N)=O)sc1-c1ccnc(C(C)(C)C(F)(F)F)c1 [Alpelisib] + CS(=O)(=O)N1CCN(Cc2cc3nc(-c4cccc5[nH]ncc45)nc(N4CCOCC4)c3s2)CC1 [Pictilisib] (partner 1 µM)
How it was run: as §1

Alpelisib + Tozasertib = compound: Cc1nc(NC(=O)N2CCC[C@H]2C(N)=O)sc1-c1ccnc(C(C)(C)C(F)(F)F)c1 [Alpelisib] + Cc1cc(Nc2cc(N3CCN(C)CC3)nc(Sc3ccc(NC(=O)C4CC4)cc3)n2)n[nH]1 [Tozasertib] (partner 0.1 µM)
How it was run: as §1

UMC-11 gave a relative viability (Vemurafenib + Bortezomib; first compound 0.03162 µM) of 0.468, a relative viability (Vemurafenib + Bortezomib; first compound 0.1 µM) of 0.713 and a relative viability (Vemurafenib + Bortezomib; first compound 0.3162 µM) of 0.57. It also gave a relative viability (Vemurafenib + Bortezomib; first compound 1 µM) of 0.296, a relative viability (OSI-027 + Palbociclib; first compound 0.01 µM) of 0.314 and a relative viability (OSI-027 + Palbociclib; first compound 0.03162 µM) of 0.371. It also gave a relative viability (OSI-027 + Palbociclib; first compound 0.1 µM) of 0.307, a relative viability (OSI-027 + Palbociclib; first compound 0.3162 µM) of 0.301 and a relative viability (OSI-027 + Palbociclib; first compound 1 µM) of 0.314. It also gave a relative viability (Alpelisib + Pictilisib; first compound 0.04 µM) of 0.832, a relative viability (Alpelisib + Pictilisib; first compound 0.1265 µM) of 0.883 and a relative viability (Alpelisib + Pictilisib; first compound 0.4 µM) of 0.877. It also gave a relative viability (Alpelisib + Pictilisib; first compound 1.265 µM) of 0.922, a relative viability (Alpelisib + Pictilisib; first compound 4 µM) of 0.772 and a relative viability (Alpelisib + Tozasertib; first compound 0.04 µM) of 0.188. The relative viability (Alpelisib + Tozasertib; first compound 0.1265 µM) was 0.198, the relative viability (Alpelisib + Tozasertib; first compound 0.4 µM) was 0.213 and the relative viability (Alpelisib + Tozasertib; first compound 1.265 µM) was 0.219. It also gave a relative viability (Alpelisib + Tozasertib; first compound 4 µM) of 0.186.
